Reference: article PMC5653818, “A Brain Penetrant Mutant IDH1 Inhibitor Provides In Vivo Survival Benefit” (Scientific Reports, 2017)

Target: IDH1 R132H (mutant isocitrate dehydrogenase 1) (Homo sapiens, UniProt O75874, R132H)
Assay: coupled enzymatic assay (GAPDH/PGK/luciferase luminescence) with R132H IDH1 enzyme
Type: biochemical

Chain of IDH1 R132H (mutant isocitrate dehydrogenase 1) (O75874 2-414 R132H): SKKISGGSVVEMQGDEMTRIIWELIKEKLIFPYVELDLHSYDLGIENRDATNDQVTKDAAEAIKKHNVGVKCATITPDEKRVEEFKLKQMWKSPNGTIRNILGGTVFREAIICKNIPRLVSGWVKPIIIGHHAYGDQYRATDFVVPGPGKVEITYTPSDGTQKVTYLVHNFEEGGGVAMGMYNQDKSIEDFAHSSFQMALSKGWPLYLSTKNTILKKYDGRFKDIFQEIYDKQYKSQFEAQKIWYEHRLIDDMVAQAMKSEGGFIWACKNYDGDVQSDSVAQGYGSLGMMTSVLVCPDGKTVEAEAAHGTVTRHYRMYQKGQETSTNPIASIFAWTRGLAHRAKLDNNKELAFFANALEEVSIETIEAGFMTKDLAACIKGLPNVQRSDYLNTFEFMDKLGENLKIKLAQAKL

IC50: 5 nM
Compound: O=C(C1CCc2ccccc2CC1)N1Cc2cccnc2Nc2ccc(N3CCOCC3)cc21 [MRK-A]
